Measured values published in patent US12280040B2, “Compositions and methods of a dihydroisoxazole compound that reduces ectoparasite infestations on fish” (EVAH Atlantic Inc., priority 2023, dated 2025).

Experiments:
sea lice = assay: First set of experiments: medicated feed over 7 consecutive days to salmon, sea lice infestation; format: in vivo; conditions: all dose rates 0.050, 0.125, 0.250 mg/kg/d in medicated feed over 7 consecutive days to salmon
Description: The inventors conducted a first set of experiments with administration in medicated feed over 7 consecutive days to salmon of 0.050, 0.125, 0.250 mg/kg/d to determine a non-therapeutic dosage for control or treatment of sea lice infestation. As these lower dosages represented a large reduction in concentration to that described in U.S. Pat. No. 9,920,037 (1.0 mg/kg/d) and, as well, represented concentrations well below the dosage for related IOB products for dogs, cats and poultry approved between 2014 and 2021 by such regulatory authorities as the U.S. Food and Drug Administration, Health Canada, and the European Medicines Agency, it was reasonable to expect to find a non-therapeutic dosage at the lower dosages tested.

Lepeophtheirus salmonis = assay: Duration of efficacy: medicated feed, then sea lice infestation of Atlantic salmon at 8 or 17 DPT (Example 2); format: in vivo; conditions: for percent efficacy for total sea lice, across counts: cohort infested at 8 DPT
Description: A randomized, blinded, parallel-group, negative-controlled study was conducted in which, the active ingredient was administered to Atlantic salmon at three dose rate (0 mg/kg/day, 0.025 mg/kg/day, and 0.060 mg/kg/day administered in medicated feed for 7 consecutive days. Following the treatment, the fish were intentionally infested with sea lice either 8 or 17 DPT, all within a controlled laboratory environment with seawater. The evaluation of efficacy for each cohort occurred at three specific timepoints post-infestation by comparing lice counts between the groups that received treatment and the untreated control groups.
Healthy Atlantic salmon post-smolts (n=1080) were selected for enrollment and distributed sequentially across eighteen (18) study tanks. Fish were weighed individually during the allocation of fish to tanks on study day (SD) −55&−56. Fish were weighed again on SD −19 to estimate the average weight of all fish and used to determine the feeding amount during the treatment period (SD 0−+6). The mean weight of fish prior to treatment was 716.1±152.5 g. Fish in the cohort infested 8 DPT were additionally weighed on SD +8, +14, +27, +35, +41 and +48. Fish in the cohort infested 17 DPT were additionally weighed on SD +8, +23, +36, +44, +50, and +57. For both cohorts SD 0 served as the first day of treatment.
Atlantic salmon post-smolts at each infestation time (8 or 17 DPT) were infested once with about 100 copepodids (Lepeophtheirus salmonis) per fish. During the study the water temperature varied between 9 and 13° C., and the water oxygen saturation was above 80%.
Three treatment groups were randomly assigned to eighteen study tanks by blocking the paired tank rows for the 8 and 17 DPT exposure. Study personnel were blinded as to the identity of the treatments for each tank.
Sea lice were counted three times during the study. […] The counts were strategically scheduled to ensure the presence of life stages, including chalimus, pre-adult, and adult stages, in at least one of the three counts within the negative control treatment. At all timepoints 10 fish were euthanized and lice counted.
Medicated feed was prepared by dry coating commercially available fish feed pellets with a premix containing the active ingredient to reach a content of about 4.2 and 10.0 mg/kg. The fish pellets were then coated with feed grade herring fish oil at an inclusion rate of about 0.75% w/w (7.5 g/kg feed) The consumption rate of the medicated feed was set to 0.6% body weight.
For the cohort infested at 8 DPT and the cohort infested at 17 DPT, treatment efficacy was computed for total number of sea lice/fish and total number of mobile life stages, i.e., preadult & adult sea lice/fish for each sea lice counting occasion (Count I, II & III). For the total number of attached/fish, treatment efficacy was computed at Count I only. Percent efficacy was computed using Abbott's formula for each treatment group compared to control as follows: percent efficacy=100*(MC−MT)/MC, where MC and MT are the arithmetic means of sea lice counts in the untreated control and S-roxapin-treated groups, respectively.
Treatments were considered efficacious when the percent efficacy was ≥90% for treated groups compared to untreated control groups. The mean sea lice abundance was reported for different parasite life stages (attached, mobile, and total (attached and mobile together)) and computed as the number of lice on salmon divided by the number of sampled fish per tank. The attached category included chalimus I & II stages. The mobile category included pre-adult and adult life stages of both males and females. The numbers of mobile, attached, and total lice were considered in this study.

[1] = 0.025 mg/kg/day in feed 7 d, infested 8 DPT, Count I (21DPI)
[2] = 0.025 mg/kg/day in feed 7 d, infested 8 DPT, Count III (34 DPI)
[3] = 0.025 mg/kg/day in feed 7 d, infested 17 DPT, Count I (21DPI)
[4] = 0.025 mg/kg/day in feed 7 d, infested 17 DPT, Count III (34 DPI)
[5] = 0.060 mg/kg/day in feed 7 d, infested 8 DPT, Count I (21DPI)
[6] = 0.060 mg/kg/day in feed 7 d, infested 8 DPT, Count III (34 DPI)
[7] = 0.060 mg/kg/day in feed 7 d, infested 17 DPT, Count I (21DPI)
[8] = 0.060 mg/kg/day in feed 7 d, infested 17 DPT, Count III (34 DPI)

Q: Which results are given for `C#CCNC(=O)CNC(=O)c1sc(C2=NO[C@@](c3cc(Cl)c(Cl)c(Cl)c3)(C(F)(F)F)C2)cc1C` [S-roxapin, (S)-3-methyl-N-(2-oxo-2-(prop-2-yn-1-ylamino)ethyl)-5-(5-(3,4,5-trichlorophenyl)-5-(trifluoromethyl)-4,5-dihydroisoxazol-3-yl)thiophene-2-carboxamide]?
A: effectiveness in reducing sea lice burdens (sea lice): ~100%; Number of Attached Lice/Fish % Efficacy (Lepeophtheirus salmonis; [1]): 92.5%; Number of Attached Lice/Fish Mean ± SD (Lepeophtheirus salmonis; [1]): 1.6 ± 2.0 lice/fish; Number of Mobile Lice/Fish % Efficacy (Lepeophtheirus salmonis; [1]): 87.2%; Number of Mobile Lice/Fish Mean ± SD (Lepeophtheirus salmonis; [1]): 1.0 ± 1.3 lice/fish; Total Number of Lice/Fish % Efficacy (Lepeophtheirus salmonis; [1]): 91.1%; Total Number of Lice/Fish Mean ± SD (Lepeophtheirus salmonis; [1]): 2.6 ± 2.9 lice/fish; Number of Attached Lice/Fish Mean ± SD (Lepeophtheirus salmonis; [2]): 0.0 ± 0.0 lice/fish; Number of Mobile Lice/Fish % Efficacy (Lepeophtheirus salmonis; [2]): 91.8%; Number of Mobile Lice/Fish Mean ± SD (Lepeophtheirus salmonis; [2]): 2.5 ± 2.8 lice/fish; Total Number of Lice/Fish % Efficacy (Lepeophtheirus salmonis; [2]): 91.8%; Total Number of Lice/Fish Mean ± SD (Lepeophtheirus salmonis; [2]): 2.5 ± 2.8 lice/fish; Number of Attached Lice/Fish % Efficacy (Lepeophtheirus salmonis; [3]): 21.2%; Number of Attached Lice/Fish Mean ± SD (Lepeophtheirus salmonis; [3]): 2.7 ± 1.9 lice/fish; Number of Mobile Lice/Fish % Efficacy (Lepeophtheirus salmonis; [3]): −10.1%; Number of Mobile Lice/Fish Mean ± SD (Lepeophtheirus salmonis; [3]): 24.4 ± 8.8 lice/fish; Total Number of Lice/Fish % Efficacy (Lepeophtheirus salmonis; [3]): −5.9%; Total Number of Lice/Fish Mean ± SD (Lepeophtheirus salmonis; [3]): 27.1 ± 9.0 lice/fish; Number of Attached Lice/Fish Mean ± SD (Lepeophtheirus salmonis; [4]): 0.0 ± 0.0 lice/fish; Number of Mobile Lice/Fish % Efficacy (Lepeophtheirus salmonis; [4]): −16.2%; Number of Mobile Lice/Fish Mean ± SD (Lepeophtheirus salmonis; [4]): 32.1 ± 12.1 lice/fish; Total Number of Lice/Fish % Efficacy (Lepeophtheirus salmonis; [4]): −16.0%; Total Number of Lice/Fish Mean ± SD (Lepeophtheirus salmonis; [4]): 32.1 ± 12.1 lice/fish; percent efficacy for total sea lice, across counts (Lepeophtheirus salmonis; 0.025 mg/kg/day): above 86.8%; efficacy for mobile lice (Lepeophtheirus salmonis; 0.025 mg/kg/day, cohort infested at 17 DPT): no efficacy; efficacy for total sea lice (Lepeophtheirus salmonis; 0.025 mg/kg/day, cohort infested at 17 DPT (printed: in DOE14)): No efficacy; Number of Attached Lice/Fish % Efficacy (Lepeophtheirus salmonis; [5]): 99.8%; Number of Attached Lice/Fish Mean ± SD (Lepeophtheirus salmonis; [5]): 0.0 ± 0.2 lice/fish; Number of Mobile Lice/Fish % Efficacy (Lepeophtheirus salmonis; [5]): 99.6%; Number of Mobile Lice/Fish Mean ± SD (Lepeophtheirus salmonis; [5]): 0.0 ± 0.2 lice/fish; Total Number of Lice/Fish % Efficacy (Lepeophtheirus salmonis; [5]): 99.8%; Total Number of Lice/Fish Mean ± SD (Lepeophtheirus salmonis; [5]): 0.1 ± 0.3 lice/fish; Number of Attached Lice/Fish Mean ± SD (Lepeophtheirus salmonis; [6]): 0.0 ± 0.0 lice/fish; Number of Mobile Lice/Fish % Efficacy (Lepeophtheirus salmonis; [6]): 100%; Number of Mobile Lice/Fish Mean ± SD (Lepeophtheirus salmonis; [6]): 0.0 ± 0.0 lice/fish; Total Number of Lice/Fish % Efficacy (Lepeophtheirus salmonis; [6]): 100%; Total Number of Lice/Fish Mean ± SD (Lepeophtheirus salmonis; [6]): 0.0 ± 0.0 lice/fish; Number of Attached Lice/Fish % Efficacy (Lepeophtheirus salmonis; [7]): 46.2%; Number of Attached Lice/Fish Mean ± SD (Lepeophtheirus salmonis; [7]): 1.9 ± 1.6 lice/fish; Number of Mobile Lice/Fish % Efficacy (Lepeophtheirus salmonis; [7]): 18.5%; Number of Mobile Lice/Fish Mean ± SD (Lepeophtheirus salmonis; [7]): 18.0 ± 6.1 lice/fish; Total Number of Lice/Fish % Efficacy (Lepeophtheirus salmonis; [7]): 22.3%; Total Number of Lice/Fish Mean ± SD (Lepeophtheirus salmonis; [7]): 19.9 ± 6.1 lice/fish; Number of Attached Lice/Fish Mean ± SD (Lepeophtheirus salmonis; [8]): 0.0 ± 0.0 lice/fish; Number of Mobile Lice/Fish % Efficacy (Lepeophtheirus salmonis; [8]): 23.0%; Number of Mobile Lice/Fish Mean ± SD (Lepeophtheirus salmonis; [8]): 21.3 ± 9.0 lice/fish; Total Number of Lice/Fish % Efficacy (Lepeophtheirus salmonis; [8]): 23.1%; Total Number of Lice/Fish Mean ± SD (Lepeophtheirus salmonis; [8]): 21.3 ± 9.0 lice/fish; percent efficacy for total sea lice, across counts (Lepeophtheirus salmonis; 0.060 mg/kg/day): above 99.2%
